Like-named read-outs stand apart in the source and are kept apart here.
Experiments:
[1] = test system: control pseudovirus NL4-3.Luc.R-E-/A-MLV; experiment: Control pseudovirus A-MLV assay in 293T/ACE2 cells; format: cell-based, amphotropic murine leukemia virus (A-MLV); details: NL43, 293T/ACE2
[2] = test system: pseudovirus NL4-3ΔEnv-NanoLuc/SARS-CoV; experiment: microbe, parasite or virus in culture; format: cell-based; details: Severe acute respiratory syndrome coronavirus, A549-ACE2; n=3; read-out: IC50
CYP3A [3] = target: T1, CYP3A (Homo sapiens, UniProt P08684); details: n=1
CYP3A [4] = target: T1, CYP3A; experiment: in vitro; details: microsomes
CYP1A2 = CYP1A2 (Homo sapiens, UniProt P05177); experiment: in vitro; details: microsomes, pH 7.4
Trypsin = format: biochemical
CYP2C8 = CYP2C8 (Homo sapiens, UniProt P10632); experiment: in vitro; details: microsomes, pH 7.4
Chain of CYP2C8 (P10632 whole entry): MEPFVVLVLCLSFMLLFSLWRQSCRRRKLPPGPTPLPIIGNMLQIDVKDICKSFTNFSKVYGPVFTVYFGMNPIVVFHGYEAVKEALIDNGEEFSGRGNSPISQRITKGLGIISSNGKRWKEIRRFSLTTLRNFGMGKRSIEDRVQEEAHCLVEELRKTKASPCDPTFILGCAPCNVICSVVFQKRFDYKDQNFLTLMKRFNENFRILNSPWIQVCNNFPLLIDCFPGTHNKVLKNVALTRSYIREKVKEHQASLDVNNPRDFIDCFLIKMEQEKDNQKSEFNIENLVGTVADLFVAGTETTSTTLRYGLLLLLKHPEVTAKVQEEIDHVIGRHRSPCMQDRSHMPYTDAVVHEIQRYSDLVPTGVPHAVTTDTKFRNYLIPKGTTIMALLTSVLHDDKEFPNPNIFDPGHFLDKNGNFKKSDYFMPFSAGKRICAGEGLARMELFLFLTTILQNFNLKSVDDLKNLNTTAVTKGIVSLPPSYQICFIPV

Chain of CYP1A2 (P05177 whole entry): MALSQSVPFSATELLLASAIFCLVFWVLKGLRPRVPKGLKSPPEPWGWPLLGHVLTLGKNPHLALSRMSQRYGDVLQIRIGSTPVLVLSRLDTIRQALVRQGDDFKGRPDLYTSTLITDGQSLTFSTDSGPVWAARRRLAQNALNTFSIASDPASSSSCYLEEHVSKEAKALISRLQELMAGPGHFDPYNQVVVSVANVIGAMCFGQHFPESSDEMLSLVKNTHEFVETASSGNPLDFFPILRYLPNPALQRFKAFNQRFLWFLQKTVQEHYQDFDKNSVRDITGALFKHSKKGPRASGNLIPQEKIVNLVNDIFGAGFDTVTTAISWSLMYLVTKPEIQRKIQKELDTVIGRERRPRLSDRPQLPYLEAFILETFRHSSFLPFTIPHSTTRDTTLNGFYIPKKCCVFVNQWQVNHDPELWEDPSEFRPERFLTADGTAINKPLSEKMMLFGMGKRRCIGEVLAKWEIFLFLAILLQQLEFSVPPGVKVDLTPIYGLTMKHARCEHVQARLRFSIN
T1 sequence (P08684 2-503): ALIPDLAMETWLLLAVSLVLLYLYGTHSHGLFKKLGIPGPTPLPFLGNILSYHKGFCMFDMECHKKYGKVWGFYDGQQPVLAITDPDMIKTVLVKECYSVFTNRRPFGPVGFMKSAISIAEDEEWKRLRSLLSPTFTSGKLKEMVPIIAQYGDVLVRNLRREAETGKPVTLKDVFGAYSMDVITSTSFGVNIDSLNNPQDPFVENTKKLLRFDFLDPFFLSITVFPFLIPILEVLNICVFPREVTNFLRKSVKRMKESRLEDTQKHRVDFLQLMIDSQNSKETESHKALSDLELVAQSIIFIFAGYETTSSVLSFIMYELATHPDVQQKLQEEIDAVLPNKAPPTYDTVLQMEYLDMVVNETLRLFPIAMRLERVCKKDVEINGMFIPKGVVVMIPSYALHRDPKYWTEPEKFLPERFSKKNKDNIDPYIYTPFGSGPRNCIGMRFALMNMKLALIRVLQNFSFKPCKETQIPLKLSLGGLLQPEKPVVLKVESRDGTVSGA

SMILES: O=C(O)c1cc(-c2ccc(/C=C3\SC(=S)N(CCc4ccccc4)C3=O)o2)ccc1Cl [NBCoV1]
- IC50 [1]: 1.397 ± 0.012 µM
- IC50 [2]: 0.098 ± 0.004 µM
- % of Control Enzyme Activity (CYP3A [3]; 0.0137 μM): 96.6%
- % of Control Enzyme Activity (CYP3A [3]; 0.0412 μM): 97.0%
- % of Control Enzyme Activity (CYP3A [3]; 0.123 μM): 94.8%
- % of Control Enzyme Activity (CYP3A [3]; 0.370 μM, 0.37 µM): 96.3%
- % of Control Enzyme Activity (CYP3A [3]; 1.11 μM): 94.6%
- % of Control Enzyme Activity (CYP3A [3]; 3.33 μM): 82.2%
- % of Control Enzyme Activity (CYP3A [3]; 10 μM): 59.9%
- IC50 (CYP3A [4]; pH 7.4): > 10 µM
- activity at 0.0137 µM (CYP3A [4]; pH 7.4, % of Control Enzyme Activity, 0.0137 μM, n=1): 96.7%
- activity at 0.0412 µM (CYP3A [4]; pH 7.4, % of Control Enzyme Activity, 0.0412 μM, n=1): 97%
- activity at 0.123 µM (CYP3A [4]; pH 7.4, % of Control Enzyme Activity, 0.123 μM, n=1): 94.5%
- activity at 0.37 µM (CYP3A [4]; pH 7.4, % of Control Enzyme Activity, 0.370 μM, n=1): 95.1%
- activity at 1.11 µM (CYP3A [4]; pH 7.4, % of Control Enzyme Activity, 1.11 μM, n=1): 95.9%
- activity at 3.33 µM (CYP3A [4]; pH 7.4, % of Control Enzyme Activity, 3.33 μM, n=1): 88.2%
- activity at 10 µM (CYP3A [4]; pH 7.4, % of Control Enzyme Activity, 10 μM, n=1): 61.6%
- activity at 0.0137 µM (CYP1A2): 99.2%
- activity at 0.0412 µM (CYP1A2): 96.7%
- activity at 0.123 µM (CYP1A2): 93.8%
- activity at 0.37 µM (CYP1A2): 92.2%
- activity at 1.11 µM (CYP1A2): 89.8%
- activity at 3.33 µM (CYP1A2): 69.5%
- activity at 10 µM (CYP1A2): 41.3%
- IC50 (Trypsin): > 2 µM
- activity at 0.0137 µM (CYP2C8): 102%
- activity at 0.0412 µM (CYP2C8): 89%
- activity at 0.123 µM (CYP2C8): 98.3%
- activity at 1.11 µM (CYP2C8): 76.9%
- activity at 3.33 µM (CYP2C8): 25.3%
- activity at 10 µM (CYP2C8): 3.87%
